Test results as given in US20220184077A1, “ANTI-VIRAL ACTIVITY OF VPS34 INHIBITORS” (Deciphera Pharmaceuticals, LLC, priority 2020, published 2022).
pIC50: −log10 of the molar value. Where two headings read alike, the source gives them in different places.

Legend:
[1] = system: coronavirus USA_WA1/2020 SARS CoV-2; assay: SARS CoV-2 CPE assay for antiviral activity (Vero E6 host cells, Cell Titer-Glo); format: cell-based; conditions: read-out: IC50 for inhibition of SARS CoV-2 mediated cell killing
[2] = in vitro; format: cell-based; conditions: African green monkey
Description: Compound cytotoxicity (CC50) is assessed in a BSL-2 counter screen as follows: Host cells in media are added in 25 μl aliquots (4000 cells/well) to each well of assay ready plates prepared with test compounds as above. […] DMSO is maintained at a constant concentration for all wells (0.3%) as dictated by the dilution factor of stock test compound concentrations. After incubating plates at 37° C./5% CO2 and 90% humidity for 72 hours, 30 μl Cell Titer-Glo (Promega) is added to each well. Luminescence is read using a BMG PHERAstar plate reader following incubation at room temperature for 10 minutes to measure cell viability.

[3] = system: SARS-CoV-2; assay: microbe, parasite or virus in culture; format: cell-based; conditions: Severe acute respiratory syndrome coronavirus 2, A549-ACE2, 48 h; read-out: IC50 for inhibition of SARS CoV-2 mediated cell killing
[4] = in vitro; conditions: human
[5] = Vero C1008, Vero E6 cells, 72 hours, 10-point dose response, high concentration 15 μM

## Cc1nccc(Nc2cc(-c3cc(-c4cccnc4C(F)(F)F)[nH]c(=O)c3)ccn2)n1 [Compound 1]
[1]; [5]
  pIC50: 6.92
[2]
  CC50 at 72 h: > 30 µM
[3]
  pIC50: 7.23
[4]
  CC50: 2 µM

## Cc1nccc(Nc2cc(-c3cc(-c4ccccc4Cl)[nH]c(=O)c3)ccn2)n1 [Compound 2]
[1]; [5]
  pIC50: > 7.70
[2]
  CC50 at 72 h: 0.482 µM
[3]
  pIC50: > 7.70
[4]
  CC50: 0.159 µM

## Cc1nccc(Nc2cc(-c3cc(-c4ccccc4C(F)(F)F)n(C)c(=O)c3)ccn2)n1 [Compound 3]
[1]; Vero C1008, 72 h
  pIC50: 7.44
[2]
  CC50 at 72 h: 1960 µM
[3]
  pIC50: > 7.70
[4]
  CC50: 1370 µM

## CCS(=O)(=O)N1CCN(c2cc(-c3ccnc(Nc4ccnc(C)n4)c3)cc(=O)[nH]2)C(C(F)(F)F)C1 (stereo not shown) [Compound 4]
[1]; Vero C1008, 72 h
  pIC50: 6.96
[2]
  CC50 at 72 h: 2760 µM
[3]
  pIC50: 7.46
[4]
  CC50: 0.557 µM
